The values below come from patent publication US8759537B2, “3H-imidazo [4, 5-C] pyridine-6-carboxamides as anti-inflammatory agents” (Boehringer Ingelheim International GmbH, priority 2010, dated 2014).

Each structure is given as a SMILES string.

One may read the IC50 as the concentration at which inhibition is half-maximal.

For test [1], the target named is T1, mPGES-1 (Homo sapiens (Human), UniProt O14684). Briefly: mPGES-1 enzyme assay (HTRF detection of PGE2). The test is classed as biochemical. Conditions: recombinant human mPGES-1 microsomes, PGH2 2 μM; read-out: mPGES-1 inhibitory effect in the enzyme assay, IC50. The method, then:
Microsomes from Rosetta E. coli bacteria expressing recombinant human mPGES-1 can be derived as described below:
Inoculate 5 ml LB with Ampicilin (50 μg/ml) and Chloramphenicol (34 μg/ml) with bacteria from freeze culture. Incubate 8 h at 37° C. with 200 rpm. Thereafter, inoculate 500-1000 ml LB containing Amp and Chloro with the 5 ml on culture and grow to OD640 of 0.8-1.0. Chill the culture to +4° C. before induction. Induce the culture with IPTG at a final concentration of 400 μM. Express the protein at room temp 18-23° C. with 200 rpm shaking over night.
The following steps can be performed on the following day: • 1. Spin down the cells in 250 ml centrifuge flasks for 15 min at 7000 rpm (Beckmann Coulte Avanti J-E centrifuge) • 2. Dissolve the pellet from 250 ml culture in 12.5 ml homogenization buffer • 3. (15 mM Tris-HCL pH8, 1 mM EDTA pH8, […], 2.5 mM GSH, 1 Tablet Protease inhibitor per 50 ml buffer) • 4. […] Add 2.5 ml MgCl2 (100 mM) and DNase 12.5 μl (0.8 mg/ml) and incubate on ice for 30 min • 6. Spin down the bacteria debris and save the supernatant, 7000 rpm for 15 min • 7. Isolate the protein containing membranes in the supernatant by ultracentrifugation 120000×g for 2 hour at 4° C. (Sorvall T880 rotor). • 8. Discard the supernatant and dissolve the pellet in 20 mM Potassium phosphate buffer pH7.4 (KH2PO4 and K2HPO4) buffer by sonication (5×10 s, 30% of a 50 W sonifier) and aliquot the enzyme and store aliquots at −80° C.
Before each experiment is performed an aliquot of the enzyme is thawed and it can then be dissolved in 0.1 M Potassium phosphate buffer pH7.4 (KH2PO4 and K2HPO4) buffer containing 2.5 mM GSH.
The aim of this assay is to determine the affinity of a test compound for the mPGES-1 enzyme.
47 μl of recombinant human mPGES-1 (˜0.5 μg protein/well) containing microsomal suspension in a buffer containing GSH, (2.5 mmol/L L-Glutathione reduced, dissolved in 0.1 mol/L Phosphat Buffer pH 7.4) is dispensed in a 384-well plate and thereafter 1 μl of the test compound(s) is/are added and incubated for 25 minutes at room temperature. The enzyme reaction is started by the addition of 2 ul PGH2 (final conc. 2 μM) dissolved in water-free Diglyme. After 60 seconds the reaction is terminated by addition of a stop solution containing FeCl2 (10 μL 0.074 mol/l FeCl2). The samples are diluted between 1:25 in PBS (Phosphate Buffered Saline). 10 μl of the diluted samples are transferred to 384-well low volume plate. In order to quantify the amount of PGE2 that has been formed, a homogenous time resolved fluorescent (HTRF) detecting of PGE2 has been performed using a commercially available kit from Cisbio according to the manufactures recommendation. […] Briefly, the diluted samples are mixed with 5 μl PGE2-d2 conjungate and 5 μl anti-PGE2 cryptate conjungate. After an incubation period of the plates over night, the fluorescence is measured by the use of an appropriate microplate reader.
The quantification plate contains also wells with different concentrations of PGE2 as calibration curve for the calculation of the PGE2 concentrations from the HTRF ratio values.
From all mPGES enzyme assay the background is subtracted and the IC50 is calculated over a nonlinear regression with conventional software.
In general terms: In TR-FRET formats the signal depends on donor and acceptor labels being close together.

Test [2] addresses T1, mPGES-1. Briefly: A549 cell-based assay (PGE2 formation, IL-1β stimulated, 50% human serum). To be noted: A549 cells, IL-1β 5 ng/ml, read-out: mPGES-1 inhibitory effect in the cell assay, IC50. In a few lines: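 Human A549 cells (7000 cells/well) in F-12 medium with 50% human serum, with IL-1β stimulation. IC50 from 6-8 point titrations.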

T1 sequence (O14684 whole entry): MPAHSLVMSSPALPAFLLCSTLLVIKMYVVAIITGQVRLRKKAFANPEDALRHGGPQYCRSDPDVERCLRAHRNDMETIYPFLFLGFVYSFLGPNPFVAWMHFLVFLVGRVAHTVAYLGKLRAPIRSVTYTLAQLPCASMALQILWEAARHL

On to `Cn1c(Nc2c(Cl)ccc(CNC(=O)C(C)(C)C)c2Cl)nc2cc(C(=O)NCC(F)F)c(OCC(F)F)cc21` [Example 43], for which the IC50 in test [1] and in test [2] was 4 nM in each case.
Take `Cn1c(Nc2c(Cl)ccc(CNC(=O)C(C)(C)C)c2Cl)nc2cc(C(=O)NCC3CC3(Cl)Cl)c(OCC(F)F)cc21` (stereo not drawn) [Example 44]: the half-maximal inhibitory concentration (IC50) in test [1] came to 3 nM; in test [2] it was 1 nM.
For `Cn1c(Nc2c(Cl)ccc(CNC(=O)C(C)(C)C)c2Cl)nc2cc(C(=O)Nc3ccc(Cl)c(F)c3)c(OCC(F)F)cc21` [Example 45] the same measures were 4 nM and under 1 nM.
The matching figures for `Cn1c(Nc2c(Cl)ccc(CNC(=O)C(C)(C)C)c2Cl)nc2cc(C(=O)NCC3CCC3)c(OCC(F)F)cc21` [Example 46]: 3 nM and 1 nM.
Regarding `Cn1c(Nc2c(Cl)ccc(CNC(=O)C(C)(C)C)c2Cl)nc2cc(C(=O)Nc3ccc(C(F)(F)F)nc3)c(OCC(F)F)cc21` [Example 47], the IC50 in test [1] was 3 nM; in test [2], under 1 nM.
For `Cn1c(Nc2c(Cl)ccc(CNC(=O)C(C)(C)C)c2Cl)nc2cc(C(=O)NCCC(F)(F)F)c(OCC(F)F)cc21` [Example 48] the same measures were 3 nM and 1 nM.
On to `COCC1(CNC(=O)c2cc3nc(Nc4c(Cl)ccc(CNC(=O)C(C)(C)C)c4Cl)n(C)c3cc2OCC(F)F)CCCC1` [Example 49], for which the values for the IC50 in test [1] and in test [2] were 4 nM and 1 nM, respectively.
The matching figures for `COC(=O)c1ccc(NC(=O)c2cc3nc(Nc4c(Cl)ccc(CNC(=O)C(C)(C)C)c4Cl)n(C)c3cc2OCC(F)F)s1` [Example 50]: 4 nM and 1 nM.
As for `Cn1c(Nc2c(Cl)ccc(CNC(=O)C(C)(C)C)c2Cl)nc2cc(C(=O)NCCC3CC3)c(OCC(F)F)cc21` [Example 51], the IC50 in test [1] is 3 nM; in test [2] it was under 1 nM.
The matching figures for `Cn1c(Nc2c(Cl)ccc(CNC(=O)C(C)(C)C)c2Cl)nc2cc(C(=O)NCC3CCCCC3)c(OCC(F)F)cc21` [Example 52]: 4 nM and under 1 nM.
For `Cn1c(Nc2c(Cl)ccc(CNC(=O)C(C)(C)C)c2Cl)nc2cc(C(=O)NCC3CC3)c(OCC(F)F)cc21` [Example 53] the same measures were 4 nM and 1 nM.
As to `Cc1ccc(Cl)cc1NC(=O)c1cc2nc(Nc3c(Cl)ccc(CNC(=O)C(C)(C)C)c3Cl)n(C)c2cc1OCC(F)F` [Example 54], the values for the IC50 in test [1] and in test [2] were 3 nM and under 1 nM, respectively.
The matching figures for `Cn1c(Nc2c(Cl)ccc(CNC(=O)C(C)(C)C)c2Cl)nc2cc(C(=O)NC3CC4CCC3C4)c(OCC(F)F)cc21` (stereo not drawn) [Example 55]: 4 nM and under 1 nM.
For `CCNC(=O)c1cc2nc(Nc3c(Cl)ccc(CNC(=O)C(C)(C)C)c3Cl)n(C)c2cc1OCC(F)F` [Example 56] the same measures were 4 nM and 3 nM.
For `Cn1c(Nc2c(Cl)ccc(CNC(=O)C(C)(C)C)c2Cl)nc2cc(C(=O)NCCc3ccccc3)c(OCC(F)F)cc21` [Example 57] the same measures were 4 nM and under 1 nM.
Turning to `Cn1c(Nc2c(Cl)ccc(CNC(=O)C(C)(C)C)c2Cl)nc2cc(C(=O)NCC(F)(F)F)c(OCC(F)F)cc21` [Example 58], the IC50 amounted to 3 nM in test [1] and 2 nM in test [2].
As for `Cn1c(Nc2c(Cl)ccc(CNC(=O)C(C)(C)C)c2Cl)nc2cc(C(=O)Nc3ccc4c(c3)CCC4)c(OCC(F)F)cc21` [Example 59], the IC50 is 4 nM in test [1] and under 1 nM in test [2].
The matching figures for `Cn1c(Nc2c(Cl)ccc(CNC(=O)C(C)(C)C)c2Cl)nc2cc(C(=O)Nc3ccc(Cl)cc3Cl)c(OCC(F)F)cc21` [Example 60, N-(2,4-dichloro-phenyl)-2-{2,6-dichloro-3-[(2,2-dimethyl-propionylamino)-methyl]-phenylamino}-6-(2,2-difluoro-ethoxy)-1-methyl-1H-benzimidazole-5-carboxylic acid amide]: 3 nM and under 1 nM.
The matching figures for `Cn1c(Nc2c(Cl)ccc(CNC(=O)C(C)(C)C)c2Cl)nc2cc(C(=O)Nc3ccc(C(F)(F)F)cn3)c(OCC(F)F)cc21` [Example 61]: 4 nM and under 1 nM.
The matching figures for `Cc1cc(C#N)c(NC(=O)c2cc3nc(Nc4c(Cl)ccc(CNC(=O)C(C)(C)C)c4Cl)n(C)c3cc2OCC(F)F)s1` [Example 62]: 2 nM and 1 nM.
Regarding `Cc1cc(Cl)cnc1NC(=O)c1cc2nc(Nc3c(Cl)ccc(CNC(=O)C(C)(C)C)c3Cl)n(C)c2cc1OCC(F)F` [Example 63], the IC50 in test [1] came out at 3 nM; in test [2] it was 1 nM.
For `Cn1c(Nc2c(Cl)ccc(CNC(=O)C(C)(C)C)c2Cl)nc2cc(C(=O)NC3CCC(F)(F)CC3)c(OCC(F)F)cc21` [Example 64] the same measures were 2 nM and under 1 nM.
Regarding `Cn1c(Nc2c(Cl)ccc(CNC(=O)C(C)(C)C)c2Cl)nc2cc(C(=O)Nc3ccncc3Cl)c(OCC(F)F)cc21` [Example 65], the IC50 in test [1] amounted to 4 nM; in test [2], 6 nM.
For `Cn1c(Nc2c(Cl)ccc(CNC(=O)C(C)(C)C)c2Cl)nc2cc(C(=O)Nc3cccc(C(F)(F)F)n3)c(OCC(F)F)cc21` [Example 66] the same measures were 4 nM and under 1 nM.
On to `Cn1c(Nc2c(Cl)ccc(CNC(=O)C(C)(C)C)c2Cl)nc2cc(C(=O)Nc3cc(C(F)(F)F)ccn3)c(OCC(F)F)cc21` [Example 67], for which the IC50 was determined as 2 nM in test [1] and 1 nM in test [2].
The matching figures for `Cn1c(Nc2c(Cl)ccc(CNC(=O)C(C)(C)C)c2Cl)nc2cc(C(=O)N[C@H]3CC[C@H](C(F)F)CC3)c(OCC(F)F)cc21` [Example 68]: 2 nM and 1 nM.
The matching figures for `Cn1c(Nc2c(F)ccc(CNC(=O)C(C)(C)C)c2F)nc2cc(C(=O)Nc3cc(F)cc(Cl)c3)c(OCC(F)F)cc21` [Example 69]: 2 nM and 3 nM.
The matching figures for `Cn1c(Nc2c(Cl)ccc(CNC(=O)C(C)(C)C)c2Cl)nc2cc(C(=O)Nc3nc(C(F)(F)F)cs3)c(F)cc21` [Example 70]: 4 nM and 16 nM.
For the compound `Cc1ccc(CNC(=O)C(C)(C)C)c(C)c1Nc1nc2cc(C(=O)Nc3ccc(F)c(Cl)c3)c(OCC(F)F)cc2n1C` [Example 71], the IC50 is 2 nM in test [1] and 16 nM in test [2].
On to `Cn1c(Nc2c(F)ccc(CNC(=O)C(C)(C)C)c2F)nc2cc(C(=O)Nc3cccc(F)c3)c(OCC(F)F)cc21` [Example 72], for which the values for the IC50 in test [1] and in test [2] were 1 nM and 9 nM, respectively.
The matching figures for `Cn1c(Nc2c(Cl)ccc(CNC(=O)C(C)(C)C)c2Cl)nc2cc(C(=O)Nc3cccc(Cl)c3F)c(OCC(F)F)cc21` [Example 73]: 2 nM and 1 nM.
With `Cn1c(Nc2c(Cl)ccc(CNC(=O)C(C)(C)C)c2Cl)nc2cc(C(=O)Nc3ccc(F)c(F)c3)c(OCC(F)F)cc21` [Example 74], the IC50 in test [1] stood at 9 nM; in test [2], 1 nM.
The matching figures for `Cn1c(Nc2c(Cl)ccc(CNC(=O)C(C)(C)C)c2F)nc2cc(C(=O)Nc3ccc(F)c(Cl)c3)c(OCC(F)F)cc21` [Example 75, N-(3-Chloro-4-fluoro-phenyl)-2-{6-chloro-2-fluoro-3-[(2,2-dimethyl-propionylamino)-methyl]-phenylamino}-6-(2,2-difluoroethoxy)-1-methyl-1H-benzimidazole-5-carboxylic acid amide]: 2 nM and under 1 nM.
